Values after ≈ are worked out from the molar mass of the structure shown.
Assay: Cytotoxicity against mouse IC2 cells
Type: functional, cell-based

| SMILES | IC50 |
| --- | --- |
| CCCCC[C@@H]1O[C@@H]2CC[C@@H]1NC(=N)N2 [MONANCHORIC ACID] | 11.3 µg/mL (≈ 53.5 µM) |
| CC[C@@H]1C=CCC[C@]2(C[C@H]3CC[C@H]4[C@@H](C(=O)O)[C@@]5(CCC[C@H](C)O5)N=C(N2)N34)O1 [CRAMBESIDIN ACID] | 25 µg/mL (≈ 62 µM) |

From ChEMBL document CHEMBL1151251, “Monanchorin, a bicyclic alkaloid from the sponge Monanchora ungiculata” (J Nat Prod, 2004)
